The assay addresses T1, full length SGK1 (Homo sapiens, UniProt O00141).
T1 construct: 125 μM full length SGK1 (Life Technologies Part #PR7358A); purchased Life Technologies PR7358A
T1 sequence (O00141 1-431): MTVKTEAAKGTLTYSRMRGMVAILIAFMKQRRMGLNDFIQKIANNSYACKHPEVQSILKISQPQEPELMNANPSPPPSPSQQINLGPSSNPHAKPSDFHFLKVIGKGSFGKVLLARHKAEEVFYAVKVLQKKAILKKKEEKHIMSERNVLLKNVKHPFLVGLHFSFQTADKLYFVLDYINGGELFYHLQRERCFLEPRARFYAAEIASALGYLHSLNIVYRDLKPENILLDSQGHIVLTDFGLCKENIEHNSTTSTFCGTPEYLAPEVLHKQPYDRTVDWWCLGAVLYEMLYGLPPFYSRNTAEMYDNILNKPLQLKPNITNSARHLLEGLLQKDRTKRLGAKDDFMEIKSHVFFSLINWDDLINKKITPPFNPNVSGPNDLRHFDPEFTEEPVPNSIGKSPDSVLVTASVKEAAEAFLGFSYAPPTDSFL
Nature of the assay: SGK1 inhibition Assay A (Caliper LabChip electrophoretic separation of fluorescent peptide substrate and phosphorylated product). As to conditions: Assay A; 20 μM ATP, 40 min incubation; read-out: SGK1 IC50. It counts as biochemical.

These results are taken from patent US20260250290A1 (BRISTOL-MYERS SQUIBB COMPANY, priority 2023, published 2026).

Molecules are shown by their SMILES.

What is called IC50 is the midpoint of a concentration-inhibition curve. In the case of `CC(C)N1CCC(c2cc(C(F)F)sc2C(=O)N[C@@H]2CCCN(c3cc(-c4ccc(C(N)=O)nc4)n4ncnc(N)c34)C2)C1` (stereo partly drawn) [Example 404, 5-(4-amino-5-((3R)-3-(5-(difluoromethyl)-3-(1-isopropylpyrrolidin-3-yl)thiophene-2-carboxamido)piperidin-1-yl)pyrrolo[2,1-f][1,2,4]triazin-7-yl)picolinamide], the IC50 was 0.254 µM.

On to `CC(=O)N1CC=C(c2cc(N3CCC[C@@H](NC(=O)c4sc(C(F)F)cc4C4CCNC4)C3)c3c(N)ncnn23)C1` (stereo partly drawn) [Example 405, N-((R)-1-(7-(1-acetyl-2,5-dihydro-1H-pyrrol-3-yl)-4-aminopyrrolo[2,1-f][1,2,4]triazin-5-yl)piperidin-3-yl)-5-(difluoromethyl)-3-(pyrrolidin-3-yl)thiophene-2-carboxamide], for which the IC50 is 0.304 µM.

`CC(=O)N1CC=C(c2cc(N3CCC[C@@H](NC(=O)c4sc(C(F)F)cc4C4CCN(C)C4)C3)c3c(N)ncnn23)C1` (stereo partly drawn) [Example 406, N-((R)-1-(7-(1-acetyl-2,5-dihydro-1H-pyrrol-3-yl)-4-aminopyrrolo[2,1-f][1,2,4]triazin-5-yl)piperidin-3-yl)-5-(difluoromethyl)-3-(1-methylpyrrolidin-3-yl)thiophene-2-carboxamide]: the half-inhibitory concentration (IC50) turned out to be 0.309 µM.

Take `CC(=O)N1CC=C(c2cc(N3CCC[C@@H](NC(=O)c4sc(C(F)F)cc4C4CCN(C(C)C)C4)C3)c3c(N)ncnn23)C1` (stereo partly drawn) [Example 407, N-((R)-1-(7-(1-acetyl-2,5-dihydro-1H-pyrrol-3-yl)-4-aminopyrrolo[2,1-f][1,2,4]triazin-5-yl)piperidin-3-yl)-5-(difluoromethyl)-3-(1-isopropylpyrrolidin-3-yl)thiophene-2-carboxamide]: the IC50 came out at 0.322 µM.

For `CCN(CC)CCOc1cc(C(F)F)sc1C(=O)N[C@@H]1CCCN(c2cc(C3=CCN(C(=O)OC)C3)n3ncnc(N)c23)C1` [Example 408, methyl (R)-3-(4-amino-5-(3-(3-(2-(diethylamino)ethoxy)-5-(difluoromethyl)thiophene-2-carboxamido)piperidin-1-yl)pyrrolo[2,1-f][1,2,4]triazin-7-yl)-2,5-dihydro-1H-pyrrole-1-carboxylate], the 50% inhibitory concentration (IC50) is 0.022 µM.

As for `CCN(CC)CCOc1cc(C(F)F)sc1C(=O)N[C@@H]1CCCN(c2cc(C3=CCN(C(C)=O)C3)n3ncnc(N)c23)C1` [Example 409, (R)-N-(1-(7-(1-acetyl-2,5-dihydro-1H-pyrrol-3-yl)-4-aminopyrrolo[2,1-f][1,2,4]triazin-5-yl)piperidin-3-yl)-3-(2-(diethylamino)ethoxy)-5-(difluoromethyl) thiophene-2-carboxamide], the IC50 turned out to be 0.024 µM.

For the molecule `CCN(CC)CCOc1cc(C(F)F)sc1C(=O)N[C@@H]1CCCN(c2cc(-c3cncnc3)n3ncnc(N)c23)C1` [Example 410, (R)-N-(1-(4-amino-7-(pyrimidin-5-yl)pyrrolo[2,1-f] [1,2,4]triazin-5-yl)piperidin-3-yl)-3-(2-(diethylamino)ethoxy)-5-(difluoromethyl) thiophene-2-carboxamide], the IC50 was determined as 0.198 µM.

As for `COC(=O)N1CC=C(c2cc(N3CCC[C@@H](NC(=O)c4sc(C(F)F)cc4OC4CCN(C(C)=O)CC4)C3)c3c(N)ncnn23)C1` [Example 411, methyl (R)-3-(5-(3-(3-((1-acetylpiperidin-4-yl)oxy)-5-(difluoromethyl)thiophene-2-carboxamido)piperidin-1-yl)-4-aminopyrrolo[2,1-f][1,2,4]triazin-7-yl)-2,5-dihydro-1H-pyrrole-1-carboxylate], the IC50 was found to be 0.005 µM.

On to `CC(=O)N1CCC(Oc2cc(C(F)F)sc2C(=O)N[C@@H]2CCCN(c3cc(C4=CCN(C(C)=O)C4)n4ncnc(N)c34)C2)CC1` [Example 412, (R)-N-(1-(7-(1-acetyl-2,5-dihydro-1H-pyrrol-3-yl)-4-aminopyrrolo[2,1-f][1,2,4]triazin-5-yl)piperidin-3-yl)-3-((1-acetylpiperidin-4-yl)oxy)-5-(difluoromethyl)thiophene-2-carboxamide], for which the concentration for half-maximal inhibition (IC50) is 0.05 µM.

Consider `CC(=O)N1CCC(Oc2cc(C(F)F)sc2C(=O)N[C@@H]2CCCN(c3cc(-c4cncnc4)n4ncnc(N)c34)C2)CC1` [Example 413, (R)-3-((1-acetylpiperidin-4-yl)oxy)-N-(1-(4-amino-7-(pyrimidin-5-yl)pyrrolo[2,1-f][1,2,4]triazin-5-yl)piperidin-3-yl)-5-(difluoromethyl)thiophene-2-carboxamide], for which the IC50 turned out to be 0.113 µM.

For the molecule `CC(=O)N1CCC(Oc2cc(C(F)F)sc2C(=O)N[C@@H]2CCCN(c3cc(-c4ccc(=O)n(CC(F)F)c4)n4ncnc(N)c34)C2)CC1` [Example 414, (R)-3-((1-acetylpiperidin-4-yl)oxy)-N-(1-(4-amino-7-(1-(2,2-difluoroethyl)-6-oxo-1,6-dihydropyridin-3-yl)pyrrolo[2,1-f][1,2,4]triazin-5-yl)piperidin-3-yl)-5-(difluoromethyl)thiophene-2-carboxamide], the IC50 worked out at 0.011 µM.

For the molecule `CC(=O)N1CCC(Oc2cc(C(F)F)sc2C(=O)N[C@@H]2CCCN(c3cc(-c4cnc(C#N)c(C)c4)n4ncnc(N)c34)C2)CC1` [Example 415, (R)-3-((1-acetylpiperidin-4-yl)oxy)-N-(1-(4-amino-7-(6-cyano-5-methylpyridin-3-yl)pyrrolo[2,1-f][1,2,4]triazin-5-yl)piperidin-3-yl)-5-(difluoromethyl)thiophene-2-carboxamide], the IC50 came out at 0.008 µM.

With `CC(=O)N1CCC(Oc2cc(C(F)F)sc2C(=O)N[C@@H]2CCCN(c3cc(-c4ccc(C#N)nc4)n4ncnc(N)c34)C2)CC1` [Example 416, (R)-3-((1-acetylpiperidin-4-yl)oxy)-N-(1-(4-amino-7-(6-cyanopyridin-3-yl)pyrrolo[2,1-f][1,2,4]triazin-5-yl)piperidin-3-yl)-5-(difluoromethyl)thiophene-2-carboxamide], the IC50 is 0.029 µM.

With `COC(=O)N1CC=C(c2cc(N3CCC[C@@H](NC(=O)c4sc(Cl)cc4OCC(=O)N4CCCC4)C3)c3c(N)ncnn23)C1` [Example 418, Methyl (R)-3-(4-amino-5-(3-(5-chloro-3-(2-oxo-2-(pyrrolidin-1-yl)ethoxy)thiophene-2-carboxamido)piperidin-1-yl)pyrrolo[2,1-f][1,2,4]triazin-7-yl)-2,5-dihydro-1H-pyrrole-1-carboxylate], the IC50 was 0.108 µM.

On to `Nc1ncnn2c(-c3cncnc3)cc(N3CCC[C@@H](NC(=O)c4sc(Cl)cc4OCC(=O)N4CCCC4)C3)c12` [Example 419, (R)-N-(1-(4-amino-7-(pyrimidin-5-yl)pyrrolo[2,1-f][1,2,4]triazin-5-yl)piperidin-3-yl)-5-chloro-3-(2-oxo-2-(pyrrolidin-1-yl)ethoxy) thiophene-2-carboxamide], for which the IC50 is 0.12 µM.

As for `N#Cc1ccc(-c2cc(N3CCC[C@@H](NC(=O)c4sc(Cl)cc4OCC(=O)N4CCCC4)C3)c3c(N)ncnn23)cn1` [Example 420, (R)-N-(1-(4-amino-7-(6-cyanopyridin-3-yl)pyrrolo[2,1-f][1,2,4]triazin-5-yl)piperidin-3-yl)-5-chloro-3-(2-oxo-2-(pyrrolidin-1-yl)ethoxy) thiophene-2-carboxamide], the IC50 was determined as 0.013 µM.

`Cc1cc(-c2cc(N3CCC[C@@H](NC(=O)c4sc(Cl)cc4OCC(=O)N4CCCC4)C3)c3c(N)ncnn23)cnc1C#N` [Example 421, (R)-N-(1-(4-amino-7-(6-cyano-5-methylpyridin-3-yl)pyrrolo[2,1-f][1,2,4]triazin-5-yl)piperidin-3-yl)-5-chloro-3-(2-oxo-2-(pyrrolidin-1-yl)ethoxy) thiophene-2-carboxamide]: the IC50 turned out to be 0.011 µM.

Take `Nc1ncnn2c(-c3ccc(=O)n(CC(F)F)c3)cc(N3CCC[C@@H](NC(=O)c4sc(Cl)cc4OCC(=O)N4CCCC4)C3)c12` [Example 422, (R)-N-(1-(4-amino-7-(1-(2,2-difluoroethyl)-6-oxo-1,6-dihydropyridin-3-yl)pyrrolo[2,1-f][1,2,4]triazin-5-yl)piperidin-3-yl)-5-chloro-3-(2-oxo-2-(pyrrolidin-1-yl)ethoxy) thiophene-2-carboxamide]: the half-inhibitory concentration (IC50) amounted to 0.015 µM.

For the molecule `COC(=O)N1CC=C(c2cc(N3CCC[C@@H](NC(=O)c4sc(C(F)F)cc4OCCNC(C)=O)C3)c3c(N)ncnn23)C1` [Example 423, Methyl (R)-3-(5-(3-(3-(2-acetamidoethoxy)-5-(difluoromethyl)thiophene-2-carboxamido)piperidin-1-yl)-4-aminopyrrolo[2,1-f][1,2,4]triazin-7-yl)-2,5-dihydro-1H-pyrrole-1-carboxylate], the half-inhibitory concentration (IC50) amounted to 0.03 µM.

Take `CC(=O)NCCOc1cc(C(F)F)sc1C(=O)N[C@@H]1CCCN(c2cc(-c3cncnc3)n3ncnc(N)c23)C1` [Example 424, (R)-3-(2-acetamidocthoxy)-N-(1-(4-amino-7-(pyrimidin-5-yl)pyrrolo[2,1-f][1,2,4]triazin-5-yl)piperidin-3-yl)-5-(difluoromethyl)thiophene-2-carboxamide]: the IC50 turned out to be 0.049 µM.

Consider `CC(=O)NCCOc1cc(C(F)F)sc1C(=O)N[C@@H]1CCCN(c2cc(-c3ccc(C#N)nc3)n3ncnc(N)c23)C1` [Example 425, (R)-3-(2-acetamidocthoxy)-N-(1-(4-amino-7-(6-cyanopyridin-3-yl)pyrrolo[2,1-f][1,2,4]triazin-5-yl)piperidin-3-yl)-5-(difluoromethyl)thiophene-2-carboxamide], for which the IC50 stood at 0.014 µM.
